Results as given in patent US5753656A, “Method for treating spinocerebellar degeneration” (Suntory Limited, priority 1994, dated 1998).
“Also recorded” adds a separate entry of the source. Counter-ions that a name gives are not always drawn.

Experiments:
[1] = KOKAI No. 25323/84; cited from earlier work
[2] = Acute oral toxicity (LD50) in rats; assay type: in vivo
Text: As the active ingredients provided by the present invention for treatment of spinocerebellar degeneration, (6R)-L-erythro-5,6,7,8-tetrahydrobiopterin (BH4) and its salts are most preferable, but analogous compounds such as (6R,S)-5,6,7,8-tetrahydrobiopterin, 1',2'-diacetyl-5, 6,7,8-tetrahydrobiopterin, sepiapterin, 6-methyl-5,6,7,8-tetrahydropterin or 6-phenyl-5,6,7,8-tetrahydropterin and their salts may also be acceptable. However, needless to say, BH4 which naturally exists in the body is preferable. […] The other compounds belonging to formula (I) likewise have little or no acute toxicity.

[3] = test system: Machado-Joseph disease (patients); assay: Double-blind crossover trial of BH4: subjective improvement; assay type: in vivo, humans; details: 1 mg/kg once daily, 10 days
Description: (§1) To 5 patients with Machado-Joseph disease listed in Table 1, a placebo (ascorbic acid) and BH4 were administered in a double-blind clinical trial with the procedure as follows:
(§2) Three patients from three families diagnosed as "clinically definite family" and two patients from two families diagnosed as "probable family" according to the diagnostic criteria by Sakai (Sakai, T., ditto) were selected.
(§3) The patients received 1 mg/kg(b.w.) of BH4 or ascorbic acid in capsules once daily, after lunch. The chemical form of BH4 given was BH4 dihydrochloride in Cases 1 to 3 and 5 and (6R,S)-L-erythro-5, 6,7,8-tetrahydrobiopterin dihydrochloride in Case 4.
Each patient was asked with respect to six symptomatic parameters: dysarthria, dysphagia, disturbance of dexterity, disturbance of stationary balance on standing, disturbance of gait, and overall sense of general well-being.
(§4) A double-blind, placebo-controlled crossover design was adopted.
(§5) Data were analyzed using paired t-test.

[4] = test system: Machado-Joseph disease (patients); assay: Double-blind crossover trial of BH4: neurological examination; assay type: in vivo, humans; details: 1 mg/kg once daily, 10 days
Description: as §1, §2, §3
The examination was performed in respect of muscle tonus of the extremities, deep reflexes, severity of dystonia, disturbance of stationary balance on standing, finger-to-nose test, finger tapping test, diadochokinetic test, heel-to-knee tapping test, and dysarthria.
as §4, §5

[5] = test system: Machado-Joseph disease (patients); assay: Double-blind crossover trial of BH4: overall conclusion on neurologic symptoms; assay type: in vivo, humans; details: 1 mg/kg once daily, 10 days, oral capsules
Description: as §1, §2, §3
Each patient was assessed by the following three methods:
as §4, §5

## C[C@H](O)[C@H](O)C1CNc2nc(N)[nH]c(=O)c2N1 (stereo partly drawn) [(6R,S)-5,6,7,8-tetrahydrobiopterin]
[1]
  Toxicity as seen in the treatment of patients with Parkinson disease: only slightly toxic

## C[C@H](O)[C@H](O)[C@H]1CNc2nc(N)[nH]c(=O)c2N1 [BH4 dihydrochloride]
[2]
  Acute oral toxicity, assessment in words: practically non-toxic
[2]; rat, in vivo
  LD50: > 2000 mg/kg

## C[C@H](O)[C@H](O)[C@H]1CNc2nc(N)[nH]c(=O)c2N1 [BH4, (6R)-L-erythro-5,6,7,8-tetrahydrobiopterin]
[3]
  Subjective symptoms, overall result: none showed a statistically significant improvement
[4]
  Neurological parameters, overall result: none exhibited a statistically significant improvement
[5]
  Effect on neurologic symptoms of Machado-Joseph disease, conclusion: remarkable therapeutic efficacy; also recorded: effective in improving neurologic symptoms
[5]; listed as tetrahydrobiopterin
  Effect on neurologic symptoms of Machado-Joseph disease, conclusion: remarkable amelioration of the neurologic symptoms
